Test results published in publication PMC3832545 (PLoS ONE, 2013).
Marks after values point to notes of the source that are not given here.

Tests used:
[1] = Plasma concentrations (pharmacokinetics) after sc injection in DIO-mice; type: in vivo, mouse
Method: The animal experiments were performed as described recently. […] Animal care and treatments were conducted in accordance with established guidelines and protocols approved by the Lady Davis Institute (protocol # 5951) and McGill University's Animal Ethics Committee. Mice were housed one mouse per cage with ad libitum access to tap water and high- or low fat diet, respectively, throughout the studies. […] The size of the tumor allografts was measured three times per week and the volume calculated using the following formula: length × width^2 × 0.52. Based on the tumor volume data for each mouse, we calculated the area under the tumor growth curves (tumor growth AUC). At termination of the experiments, mice were anesthetized with isoflurane. Blood was collected by cardiac puncture and immediately after euthanasia by cervical dislocation, samples of the liver, colon, gastrocnemius muscle and the MC38 cell tumor allografts were dissected out and snap-frozen in liquid nitrogen for later preparation of tissue lysate. Before experiments were initiated, the systemic levels of mouse insulin were measured using a Rat/Mouse Insulin ELISA kit (Millipore Corp., Bilerica, MA, USA), according to manufacturer's instructions. […] Mouse C-peptide was assayed with Rat/Mouse C-peptide 2 ELISA kit (Millipore), according to manufacturer's instructions. […] At termination of experiments whole blood was collected in EDTA-coated tubes (BD Biosciences) by cardiac puncture. […] Mouse C-peptide was assayed with Rat/Mouse C-peptide 2 ELISA kit (Millipore) according to manufacturer's instructions. […] The lower detection limit of the assay was 2 pM. […] Plate wells were coated with a mouse monoclonal anti-insulin antibody OXI005 (Novo Nordisk A/S) coupled to acceptor beads. […] Ten μl of this dilution were added to the wells. […] The lower detection limit of the assay was 233 pM.

MC38 cell allografts = test: Growth of MC38 cell tumor allografts in mice with diet-induced obesity; type: in vivo, mouse; settings: 600 nmol/kg sc twice daily; for Tumor end volume, mean / Tumor end volume, fold change relative to vehicle: day 14; for AUC tumor growth, mean / AUC tumor growth, fold change relative to vehicle: day 0 to 14
Method: We focused on different endpoints in these animal experiments and monitored tumor growth in all experiments, see Table 1. The animal experiments were performed as described recently. […] Animal care and treatments were conducted in accordance with established guidelines and protocols approved by the Lady Davis Institute (protocol # 5951) and McGill University's Animal Ethics Committee. Mice were housed one mouse per cage with ad libitum access to tap water and high- or low fat diet, respectively, throughout the studies. The temperature in the animal rooms was maintained at 20-25°C with a light/dark cycle of 14/10 hours. Mice were acclimatized for 7-10 days before experimental procedures were initiated. At experimental day 0, 2.0×10^5 (experiment A) or 5.0×10^5 (all other experiments) MC38 cells, suspended in 100 μl phosphate-buffered saline (PBS), were injected subcutaneously (sc) in the right flank of the mice. […] The size of the tumor allografts was measured three times per week and the volume calculated using the following formula: length × width^2 × 0.52. Based on the tumor volume data for each mouse, we calculated the area under the tumor growth curves (tumor growth AUC). At termination of the experiments, mice were anesthetized with isoflurane. Blood was collected by cardiac puncture and immediately after euthanasia by cervical dislocation, samples of the liver, colon, gastrocnemius muscle and the MC38 cell tumor allografts were dissected out and snap-frozen in liquid nitrogen for later preparation of tissue lysate. The effect of treatment on tumor growth in each of the five animal experiments were analysed in a one-way ANOVA followed by pairwise comparison of each treatment with vehicle using multiple t-tests with Dunnetts correction for each of the two tumor growth endpoints; tumor end volume and area under the tumor growth curves (tumor growth AUC). The results of this analysis for each experiment, i.e., mean values for each treatment, 95% confidence intervals and the fold change of each treatment relative to vehicle, are shown in Table 3. To examine treatment-related effects on tumor growth across all five animal experiments, we for each endpoint (tumor end volume and tumor growth AUC) pooled all data in one dataset and analysed them in a mixed linear model with treatment as a fixed explanatory variable and experiment as a random effect. No significant interaction between treatment and experiment was found for the any of the two outcomes (tumor end volume and tumor growth AUC). To further explore the differences between treatments, pairwise comparisons of each type of treatment were done using multiple t-test with Bonferonni correction. No outliers were observed among the 131 observations of tumor end volume, whereas one outlier was identified among the 131 observations of tumor growth AUC.

MCF-7 cells = test: MTT cell proliferation assay, MCF-7 cells; type: cell-based, human; settings: 24 h, 0.1% (v/v) serum, 0.001 to 1000 nM, three independent experiments with four replicates
Method: Effect of test compounds on proliferation was assessed with 3-(4,5-dimethylthiazol-2-yl)-2,5-diphenyl tetrazolium bromide (MTT) assays, essentially as described previously. In brief, MC38 cells were plated in 96-well plates (5,000 cells per well) in growth medium. […] Data for relative cell numbers from the three repeated experiments, each with four replicate samples per condition, were then used to fit dose-response curves using GraphPad Prism version 6.0 (GraphPad Software Inc., La Jolla, CA, USA). Cell proliferation experiments were done with MCF-7 cells as described for MC38 cells, except that 20,000 cells were plated per well. See Materials S1 and Figure S1 for detailed supplementary information regarding cell proliferation experiments.
In initial tests the association between number of cells and absorbance at 570 nm measured in an MTT assay was examined after incubation of MC38 cells with MTT for 3 h, 3 h after plating different number of cells per well, i.e., the total incubation period was 6 h. As expected there was a highly linear relationship between absolute number of cells and the measured absorbance (Figure S1). […] After incubation for 1 day cells were rinsed in PBS (room temperature) and then starvation medium was added. […] Control samples were treated with starvation medium only. After treatment for 21 h, 10 µl stock solution of MTT dissolved in PBS (5.0 mg/ml) was added to each well, and incubation was continued for 3 h so treatment with test compounds in total lasted 24 h. At the end of the treatment period medium with test compounds was removed and formazan crystals were suspended by adding 100 µl 0.04 M HCl dissolved in isopropanol to each well and absorbance was thereafter read at 570 nm using a Emax PC plate reader (Molecular Devices LLC, Sunnyvale, CA, USA). Each treatment was done with four replicate samples and three independent experiments were performed. In each experiment the absorbance was normalized to the mean absorbance in the untreated control samples. […]

[2] = all experiments (A–E) pooled, mixed linear model, DIO-mice
[3] = all experiments (A–E) pooled, mixed linear model, one outlier excluded, DIO-mice
[4] = experiment A, n = 6, 2.0×10^5 MC38 cells sc, DIO-mice
[5] = experiment A, n = 6, 2.0×10^5 MC38 cells sc, male C57BL/6 DIO-mice
[6] = experiment B, n = 6, 5.0×10^5 MC38 cells sc, DIO-mice
[7] = experiment C, n = 6, 5.0×10^5 MC38 cells sc, DIO-mice
[8] = experiment D, n = 8–10, 5.0×10^5 MC38 cells sc, DIO-mice
[9] = experiment E, n = 10, 5.0×10^5 MC38 cells sc, DIO-mice

human insulin [HI]
Plasma elimination half-life (t½) ([1]; DIO-mice, 600 nmol/kg sc, estimated from plasma concentrations […] min, 1 h and 6 h after injection): approximately 30 min
Cmax (plasma) ([1]; DIO-mice, 600 nmol/kg sc, plasma, LOCI / wash-LOCI / ELISA): approximately 1000 nM
Tumor end volume, mean (MC38 cell allografts; [2]): 409.5 mm^3
AUC tumor growth, mean (MC38 cell allografts; [3]): 1542.1 day × mm^3
AUC tumor growth, mean (MC38 cell allografts; [4]): 1539.6 day × mm^3
Tumor end volume, mean (MC38 cell allografts; [5]): 439.3 mm^3
AUC tumor growth, mean (MC38 cell allografts; [6]): 1725.4 day × mm^3
Tumor end volume, mean (MC38 cell allografts; [6]): 434.3 mm^3
AUC tumor growth, mean (MC38 cell allografts; [7]): 1309.5 day × mm^3
Tumor end volume, mean (MC38 cell allografts; [7]): 374.5 mm^3
AUC tumor growth, mean (MC38 cell allografts; [8]): 1483.0 day × mm^3
Tumor end volume, mean (MC38 cell allografts; [8]): 397.7 mm^3
AUC tumor growth, mean (MC38 cell allografts; [9]): 1421.9 day × mm^3
Tumor end volume, mean (MC38 cell allografts; [9]): 365.6 mm^3
Ranking according to mitogenic potency (MTT assay) (MCF-7 cells): IGF-1>X10>HI

IGF-1: recombinant human IGF-1 (Increlex, IPSEN Pharma GmbH)
Plasma elimination half-life (t½) ([1]; mouse, in vivo, sc): approximately 70 min
Tumor end volume, mean (MC38 cell allografts; [2]): 686.3 mm^3
AUC tumor growth, mean (MC38 cell allografts; [3]): 2499.8 day × mm^3
AUC tumor growth, mean (MC38 cell allografts; [7]): 2596.8 day × mm^3
Tumor end volume, mean (MC38 cell allografts; [7]): 724.6 mm^3
AUC tumor growth, mean (MC38 cell allografts; [8]): 2207.1 day × mm^3
Tumor end volume, mean (MC38 cell allografts; [8]): 616.0 mm^3
Ranking according to mitogenic potency (MTT assay) (MCF-7 cells): IGF-1>X10>HI

insulin analog B10Asp [X10]
Cmax relative to plasma concentrations of endogenous mouse insulin in hyperinsulinemic DIO-mice ([1]; mouse, in vivo, sc): approximately 1000 fold
Plasma elimination half-life (t½) ([1]; mouse, in vivo, sc): approximately 30 min
Time of maximal plasma concentration ([1]; mouse, in vivo, sc): 15 min
Tumor end volume, fold change relative to vehicle (MC38 cell allografts; [2]): 1.5 ^* fold
Tumor end volume, mean (MC38 cell allografts; [2]): 500.5 mm^3
AUC tumor growth, fold change relative to vehicle (MC38 cell allografts; [3]): 1.5 ^* fold
AUC tumor growth, mean (MC38 cell allografts; [3]): 1851.9 day × mm^3
AUC tumor growth, fold change relative to vehicle (MC38 cell allografts; [4]): 0.9 fold
AUC tumor growth, mean (MC38 cell allografts; [4]): 1880.9 day × mm^3
Tumor end volume, fold change relative to vehicle (MC38 cell allografts; [4]): 1.0 fold
Tumor end volume, mean (MC38 cell allografts; [5]): 500.7 mm^3
AUC tumor growth, fold change relative to vehicle (MC38 cell allografts; [6]): 1.8 fold
AUC tumor growth, mean (MC38 cell allografts; [6]): 2167.5 day × mm^3
Tumor end volume, fold change relative to vehicle (MC38 cell allografts; [6]): 1.7 fold
Tumor end volume, mean (MC38 cell allografts; [6]): 558.4 mm^3
AUC tumor growth, fold change relative to vehicle (MC38 cell allografts; [7]): 1.8 ^* fold
AUC tumor growth, mean (MC38 cell allografts; [7]): 2060.9 day × mm^3
Tumor end volume, fold change relative to vehicle (MC38 cell allografts; [7]): 2.0 ^* fold
Tumor end volume, mean (MC38 cell allografts; [7]): 646.8 mm^3
AUC tumor growth, fold change relative to vehicle (MC38 cell allografts; [8]): 1.6 fold
AUC tumor growth, mean (MC38 cell allografts; [8]): 1394.4 day × mm^3
Tumor end volume, fold change relative to vehicle (MC38 cell allografts; [8]): 1.9 fold
Tumor end volume, mean (MC38 cell allografts; [8]): 345.8 mm^3
AUC tumor growth, fold change relative to vehicle (MC38 cell allografts; [9]): 1.4 fold
AUC tumor growth, mean (MC38 cell allografts; [9]): 1836.1 day × mm^3
Tumor end volume, fold change relative to vehicle (MC38 cell allografts; [9]): 1.3 fold
Tumor end volume, mean (MC38 cell allografts; [9]): 427.0 mm^3
Ranking according to mitogenic potency (MTT assay) (MCF-7 cells): IGF-1>X10>HI
